Experimental data published in ChEMBL document CHEMBL1151005 (Bioorg Med Chem Lett, 1995).

Molecular target: Human immunodeficiency virus type 1 reverse transcriptase (Human immunodeficiency virus 1, UniProt Q72547)
Experiment: Inhibitory activity against HIV-1 Reverse transcriptase (RT) was determined

IC50 [µM] | SMILES
0.35 | CCN1c2cnccc2N(C)C(=O)c2cccnc21
1.6 | CCN1c2ccncc2N(C)C(=O)c2cccnc21
6.4 | CCN1c2cnccc2C(=O)N(C)c2cccnc21
